Reference: patent US20190262363A1, “ANTAGONIST OF MINERALOCORTICOID RECEPTOR FOR THE TREATMENT OF OSTEOARTHRITIS” (INSERM (INSTITUT NATIONAL DE LA SANTÉ ET DE LA RECHERCHE …, priority 2016, published 2019)
Entries after “also recorded” stand apart in the source; their conditions may differ.

Test system: knee joints of SHHF^cp/cp rats (metabolic syndrome associated osteoarthritis model) and lean SHHF^+/+ rats
Assay: Chronic eplerenone treatment in lean SHHF+/+ and MetS SHHFcp/cp rats; knee joint histology and OARSI scoring
Assay type: in vivo, rat
From the text: In this study were used lean SHHF^+/+ (spontaneously hypertensive heart failure) rats as controls and obese SHHF^cp/cp rats, which have been characterized as a good model for metabolic syndrome (MetS). […] The absence of eple means that the considered rats are part of a control placebo group.
Animals of both lean SHHF^+/+ and MetS SHHF^cp/cp genotypes were divided randomly into two groups. Group I (n=4 for SHHF^+/+ and n=4 for SHHF^cp/cp) was given placebo and group II (n=4 for SHHF^+/+ and n=9 for SHHF^cp/cp) was given 100 mg.kg-1.day-1 of the selective MRA eplerenone (pure active molecule provided by Pfizer) in drinking water from 1.5 months to 12.5 months of age. The knee joints of 1.5- and 12.5- month-old specimens of each group (untreated SHHF^+/+ and SHHF^cp/cp and their treated counterparts) were fixed in 4% paraformaldehyde, decalcified in EDTA-phosphate buffered solution and then embedded in paraffin. […] thick adjacent sections were stained with Toluidine Blue, Hematoxylin and Eosin or submitted to collagen II immunohistochemistry in order to investigate cartilage destruction, osteophyte formation and lesions of the synovial tissue, respectively. The corresponding scores following OARSI guidelines were done blindly by independent researchers.

COC(=O)[C@@H]1CC2=CC(=O)CC[C@]2(C)[C@@]23O[C@@H]2C[C@@]2(C)[C@@H](CC[C@@]24CCC(=O)O4)[C@H]13 [eplerenone, Pregn-4-ene-7,21-dicarboxylic acid, 9,11-epoxy-17-hydroxy-3-oxo-,y-lactone, methyl ester, (7α,11α,17β)]
Cartilage histology (toluidine blue): fibrillations and loss of proteoglycans (12.5SHHF^cp/cp Eple knee joints vs untreated 12.5SHHF^cp/cp, FIG. 1D vs. 1C): markedly reduced fibrillations and loss of proteoglycans | Osteophytes, collagen II immunostaining (12.5SHHF^cp/cp Eple knee joints vs untreated 12.5SHHF^cp/cp, FIG. 2D vs. 2C): alleviated osteophytes | Synovial tissue histology (Hematoxylin & Eosin): inflammation and fibrosis (12.5SHHF^cp/cp Eple knee joints vs untreated 12.5SHHF^cp/cp, FIG. 3D vs. 3C): attenuated inflammation and fibrosis of the synovial tissue | OARSI scoring of the joint cartilage degradation (cartilage alterations) (12.5SHHF^cp/cp Eple rats vs placebo 12.5SHHF^cp/cp, 100 mg.kg-1.day-1 in drinking water from 1.5 to 12.5 months of age, FIG. 1E): prevents the degradation of joint cartilage; also recorded: drastically decreases the cartilage alterations | OARSI scoring of osteophyte (osteophyte formation) (12.5SHHF^cp/cp Eple rats vs placebo 12.5SHHF^cp/cp, 100 mg.kg-1.day-1 in drinking water from 1.5 to 12.5 months of age, FIG. 2E): reduces osteophyte formation; also recorded: significantly hampers osteophyte formation | OARSI scoring of the joint inflammation (synovial inflammatory and fibrotic events) (12.5SHHF^cp/cp Eple rats vs placebo 12.5SHHF^cp/cp, 100 mg.kg-1.day-1 in drinking water from 1.5 to 12.5 months of age, FIG. 3E): reduces the joint inflammation; also recorded: markedly reduces the level of inflammatory and fibrotic events | Knee joint phenotype (MetS 12.5SHHF^cp/cp Eple rats treated from 1.5 months onward, compared to placebo 12.5SHHF^cp/cp): phenotypes very similar to those of their ^12.5SHHF^+/+ counterparts | Knee joint phenotype (lean 12.5SHHF^+/+ eple rats, 100 mg.kg-1.day-1 in drinking water from 1.5 to 12.5 months of age): displayed normal phenotype
